Experiments:
Settings in all cases: Compound concentration 100.0 nM
[1] = molecular target: Serine/threonine-protein kinase N1 (Homo sapiens) (UniProt Q16512)
[2] = molecular target: Serine/threonine-protein kinase Nek3 (Homo sapiens) (UniProt P51956)
[3] = molecular target: Serine/threonine-protein kinase RIO3 (Homo sapiens) (UniProt O14730)
[4] = molecular target: Mitogen-activated protein kinase 4 (Homo sapiens) (UniProt P31152)
[5] = molecular target: Tyrosine-protein kinase JAK1 (Homo sapiens) (UniProt P23458)
[6] = molecular target: Vascular endothelial growth factor receptor 2 (Homo sapiens) (UniProt P35968)
[7] = molecular target: Glycogen synthase kinase-3 alpha (Homo sapiens) (UniProt P49840)
[8] = molecular target: Serine/threonine-protein kinase N2 (Homo sapiens) (UniProt Q16513)
[9] = molecular target: Tyrosine-protein kinase Blk (Homo sapiens) (UniProt P51451)
[10] = molecular target: Serine/threonine-protein kinase VRK2 (Homo sapiens) (UniProt Q86Y07)
[11] = molecular target: T1, Cytoplasmic tyrosine-protein kinase BMX (Homo sapiens) (UniProt P51813)
T1 sequence (whole entry): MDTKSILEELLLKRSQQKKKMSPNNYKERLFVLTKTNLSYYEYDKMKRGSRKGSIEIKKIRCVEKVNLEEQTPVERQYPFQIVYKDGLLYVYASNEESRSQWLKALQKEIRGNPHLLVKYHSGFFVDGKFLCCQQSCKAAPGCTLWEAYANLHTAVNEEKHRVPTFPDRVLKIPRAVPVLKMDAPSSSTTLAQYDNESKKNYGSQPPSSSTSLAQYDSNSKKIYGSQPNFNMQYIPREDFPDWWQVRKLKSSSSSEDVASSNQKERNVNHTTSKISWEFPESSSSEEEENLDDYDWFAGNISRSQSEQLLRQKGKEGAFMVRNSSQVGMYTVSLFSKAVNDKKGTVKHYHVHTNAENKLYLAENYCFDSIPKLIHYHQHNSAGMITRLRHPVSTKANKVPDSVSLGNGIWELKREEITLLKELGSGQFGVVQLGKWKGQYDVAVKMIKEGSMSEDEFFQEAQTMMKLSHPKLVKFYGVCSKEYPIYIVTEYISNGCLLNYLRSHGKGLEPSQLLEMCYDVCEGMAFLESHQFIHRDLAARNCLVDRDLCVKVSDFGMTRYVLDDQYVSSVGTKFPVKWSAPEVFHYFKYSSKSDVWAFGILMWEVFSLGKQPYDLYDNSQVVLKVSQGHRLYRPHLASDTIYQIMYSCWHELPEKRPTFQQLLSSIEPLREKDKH

[12] = molecular target: Cyclin-dependent kinase 4 (Homo sapiens) (UniProt P11802)
[13] = molecular target: Serine/threonine-protein kinase WNK4 (Homo sapiens) (UniProt Q96J92)
[14] = molecular target: Ribosomal protein S6 kinase alpha-5 (Homo sapiens) (UniProt O75582)
[15] = molecular target: Aurora kinase C (Homo sapiens) (UniProt Q9UQB9)
[16] = molecular target: Dual specificity mitogen-activated protein kinase kinase 4 (Homo sapiens) (UniProt P45985)
[17] = molecular target: Serine/threonine-protein kinase D3 (Homo sapiens) (UniProt O94806)
[18] = molecular target: 5'-AMP-activated protein kinase catalytic subunit alpha-1 (Homo sapiens) (UniProt Q13131)
[19] = test system: Phosphatidylinositol 4,5-bisphosphate 3-kinase catalytic subunit alpha isoform (Homo sapiens), P42336 [I800L]
[20] = molecular target: Serine/threonine-protein kinase NIM1 (Homo sapiens) (UniProt Q8IY84)
[21] = molecular target: Insulin-like growth factor 1 receptor (Homo sapiens) (UniProt P08069)
[22] = molecular target: Mitogen-activated protein kinase kinase kinase 5 (Homo sapiens) (UniProt Q99683)
[23] = molecular target: Cyclin-dependent kinase 9 (Homo sapiens) (UniProt P50750)
[24] = molecular target: Calcium/calmodulin-dependent protein kinase type II subunit delta (Homo sapiens) (UniProt Q13557)
[25] = molecular target: Serine/threonine-protein kinase 24 (Homo sapiens) (UniProt Q9Y6E0)
[26] = test system: Mast/stem cell growth factor receptor Kit (Homo sapiens), P10721 [D816H]
[27] = test system: Tyrosine-protein kinase ABL1 (Homo sapiens), P00519 [Q252H]
[28] = molecular target: Activin receptor type-2B (Homo sapiens) (UniProt Q13705)
[29] = molecular target: Beta-adrenergic receptor kinase 1 (Homo sapiens) (UniProt P25098)
[30] = molecular target: Ephrin type-A receptor 6 (Homo sapiens) (UniProt Q9UF33)
[31] = molecular target: Phosphatidylinositol 3-kinase catalytic subunit type 3 (Homo sapiens) (UniProt Q8NEB9)
[32] = molecular target: Serine/threonine-protein kinase TAO3 (Homo sapiens) (UniProt Q9H2K8)
[33] = molecular target: Protein kinase C theta type (Homo sapiens) (UniProt Q04759)
[34] = molecular target: Cyclin-dependent kinase 13 (Homo sapiens) (UniProt Q14004)
[35] = molecular target: Serine/threonine-protein kinase PLK2 (Homo sapiens) (UniProt Q9NYY3)
[36] = molecular target: Mitogen-activated protein kinase 8 (Homo sapiens) (UniProt P45983)

Measured: residual activity

Chain of Protein kinase C theta type (Homo sapiens) (Q04759 whole entry, looked up): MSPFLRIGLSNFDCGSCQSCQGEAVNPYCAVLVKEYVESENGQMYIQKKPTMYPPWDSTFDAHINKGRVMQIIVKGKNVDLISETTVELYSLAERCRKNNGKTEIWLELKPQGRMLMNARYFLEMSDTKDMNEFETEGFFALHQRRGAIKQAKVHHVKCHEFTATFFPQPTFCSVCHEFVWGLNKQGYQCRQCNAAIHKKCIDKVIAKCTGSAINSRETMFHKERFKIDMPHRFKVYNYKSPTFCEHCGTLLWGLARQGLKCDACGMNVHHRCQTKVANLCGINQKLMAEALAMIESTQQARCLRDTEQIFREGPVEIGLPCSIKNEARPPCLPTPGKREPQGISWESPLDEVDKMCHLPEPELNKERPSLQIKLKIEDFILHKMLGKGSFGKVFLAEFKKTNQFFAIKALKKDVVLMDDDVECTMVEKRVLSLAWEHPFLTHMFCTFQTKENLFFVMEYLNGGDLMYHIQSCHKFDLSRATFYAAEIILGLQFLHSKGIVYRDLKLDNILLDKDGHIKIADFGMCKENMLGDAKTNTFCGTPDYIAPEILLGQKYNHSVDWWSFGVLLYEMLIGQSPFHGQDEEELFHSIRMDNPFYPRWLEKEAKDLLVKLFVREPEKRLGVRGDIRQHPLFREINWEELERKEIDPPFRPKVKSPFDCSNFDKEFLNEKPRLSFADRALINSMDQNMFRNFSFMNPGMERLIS
Chain of 5'-AMP-activated protein kinase catalytic subunit alpha-1 (Homo sapiens) (Q13131 whole entry, looked up, canonical isoform): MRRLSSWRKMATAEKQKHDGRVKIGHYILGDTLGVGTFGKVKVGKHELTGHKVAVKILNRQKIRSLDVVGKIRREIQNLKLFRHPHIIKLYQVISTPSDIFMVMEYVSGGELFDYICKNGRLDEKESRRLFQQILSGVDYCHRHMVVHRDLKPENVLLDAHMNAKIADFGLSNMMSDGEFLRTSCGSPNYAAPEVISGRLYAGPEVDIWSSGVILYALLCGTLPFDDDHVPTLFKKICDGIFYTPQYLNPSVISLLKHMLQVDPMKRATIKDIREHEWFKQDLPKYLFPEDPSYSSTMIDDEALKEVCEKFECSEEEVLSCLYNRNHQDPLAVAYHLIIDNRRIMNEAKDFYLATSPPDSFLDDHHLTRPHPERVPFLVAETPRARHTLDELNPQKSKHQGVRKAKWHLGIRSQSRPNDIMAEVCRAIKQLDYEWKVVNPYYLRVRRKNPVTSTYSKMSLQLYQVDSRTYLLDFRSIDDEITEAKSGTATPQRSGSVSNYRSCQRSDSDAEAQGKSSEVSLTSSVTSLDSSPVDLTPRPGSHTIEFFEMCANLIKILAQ
Chain of Cyclin-dependent kinase 4 (Homo sapiens) (P11802 whole entry): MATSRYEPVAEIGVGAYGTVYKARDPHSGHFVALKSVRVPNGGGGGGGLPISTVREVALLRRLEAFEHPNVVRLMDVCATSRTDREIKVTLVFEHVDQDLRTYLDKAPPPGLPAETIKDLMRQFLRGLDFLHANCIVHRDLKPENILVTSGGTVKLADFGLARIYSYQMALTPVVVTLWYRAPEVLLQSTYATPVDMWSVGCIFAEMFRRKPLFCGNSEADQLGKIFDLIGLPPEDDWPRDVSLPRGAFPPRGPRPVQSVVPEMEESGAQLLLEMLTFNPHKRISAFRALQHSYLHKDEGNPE
Chain of Dual specificity mitogen-activated protein kinase kinase 4 (Homo sapiens) (P45985 whole entry): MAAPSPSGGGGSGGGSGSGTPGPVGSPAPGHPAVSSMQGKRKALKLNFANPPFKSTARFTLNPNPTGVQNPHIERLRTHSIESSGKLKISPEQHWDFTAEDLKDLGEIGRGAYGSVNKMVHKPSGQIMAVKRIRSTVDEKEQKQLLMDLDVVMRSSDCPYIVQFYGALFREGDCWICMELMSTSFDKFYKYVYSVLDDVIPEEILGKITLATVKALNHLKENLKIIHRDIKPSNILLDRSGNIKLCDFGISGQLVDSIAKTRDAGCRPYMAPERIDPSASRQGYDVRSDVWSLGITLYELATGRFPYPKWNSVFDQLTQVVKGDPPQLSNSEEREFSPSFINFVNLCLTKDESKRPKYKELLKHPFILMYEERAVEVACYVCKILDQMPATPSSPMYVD
Chain of Mitogen-activated protein kinase 4 (Homo sapiens) (P31152 whole entry): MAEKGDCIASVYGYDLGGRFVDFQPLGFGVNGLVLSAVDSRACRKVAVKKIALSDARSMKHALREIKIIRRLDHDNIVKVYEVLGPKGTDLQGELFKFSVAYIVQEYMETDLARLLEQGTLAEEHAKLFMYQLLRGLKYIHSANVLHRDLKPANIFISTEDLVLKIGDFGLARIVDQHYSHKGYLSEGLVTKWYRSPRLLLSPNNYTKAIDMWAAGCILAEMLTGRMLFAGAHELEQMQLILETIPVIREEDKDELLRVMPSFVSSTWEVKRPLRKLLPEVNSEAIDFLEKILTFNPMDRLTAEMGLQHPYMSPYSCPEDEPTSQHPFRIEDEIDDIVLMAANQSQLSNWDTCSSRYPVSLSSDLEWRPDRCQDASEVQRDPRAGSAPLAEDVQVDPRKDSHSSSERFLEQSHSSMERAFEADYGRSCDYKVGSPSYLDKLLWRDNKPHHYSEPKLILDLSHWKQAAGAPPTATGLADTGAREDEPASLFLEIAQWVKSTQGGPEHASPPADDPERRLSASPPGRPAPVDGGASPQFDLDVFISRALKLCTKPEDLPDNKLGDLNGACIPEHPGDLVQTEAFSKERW
Chain of Mitogen-activated protein kinase 8 (Homo sapiens) (P45983 whole entry): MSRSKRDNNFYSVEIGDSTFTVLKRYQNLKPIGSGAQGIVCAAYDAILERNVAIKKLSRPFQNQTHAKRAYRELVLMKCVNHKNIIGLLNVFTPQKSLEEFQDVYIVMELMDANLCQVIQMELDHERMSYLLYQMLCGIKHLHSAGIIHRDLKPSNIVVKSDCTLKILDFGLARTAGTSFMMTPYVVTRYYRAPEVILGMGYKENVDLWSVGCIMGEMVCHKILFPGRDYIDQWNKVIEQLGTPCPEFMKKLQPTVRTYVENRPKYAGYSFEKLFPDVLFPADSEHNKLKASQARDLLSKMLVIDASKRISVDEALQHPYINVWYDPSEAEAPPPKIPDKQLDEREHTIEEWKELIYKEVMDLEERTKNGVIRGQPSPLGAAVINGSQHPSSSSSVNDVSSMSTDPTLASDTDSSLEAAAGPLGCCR
Chain of Serine/threonine-protein kinase TAO3 (Homo sapiens) (Q9H2K8 whole entry): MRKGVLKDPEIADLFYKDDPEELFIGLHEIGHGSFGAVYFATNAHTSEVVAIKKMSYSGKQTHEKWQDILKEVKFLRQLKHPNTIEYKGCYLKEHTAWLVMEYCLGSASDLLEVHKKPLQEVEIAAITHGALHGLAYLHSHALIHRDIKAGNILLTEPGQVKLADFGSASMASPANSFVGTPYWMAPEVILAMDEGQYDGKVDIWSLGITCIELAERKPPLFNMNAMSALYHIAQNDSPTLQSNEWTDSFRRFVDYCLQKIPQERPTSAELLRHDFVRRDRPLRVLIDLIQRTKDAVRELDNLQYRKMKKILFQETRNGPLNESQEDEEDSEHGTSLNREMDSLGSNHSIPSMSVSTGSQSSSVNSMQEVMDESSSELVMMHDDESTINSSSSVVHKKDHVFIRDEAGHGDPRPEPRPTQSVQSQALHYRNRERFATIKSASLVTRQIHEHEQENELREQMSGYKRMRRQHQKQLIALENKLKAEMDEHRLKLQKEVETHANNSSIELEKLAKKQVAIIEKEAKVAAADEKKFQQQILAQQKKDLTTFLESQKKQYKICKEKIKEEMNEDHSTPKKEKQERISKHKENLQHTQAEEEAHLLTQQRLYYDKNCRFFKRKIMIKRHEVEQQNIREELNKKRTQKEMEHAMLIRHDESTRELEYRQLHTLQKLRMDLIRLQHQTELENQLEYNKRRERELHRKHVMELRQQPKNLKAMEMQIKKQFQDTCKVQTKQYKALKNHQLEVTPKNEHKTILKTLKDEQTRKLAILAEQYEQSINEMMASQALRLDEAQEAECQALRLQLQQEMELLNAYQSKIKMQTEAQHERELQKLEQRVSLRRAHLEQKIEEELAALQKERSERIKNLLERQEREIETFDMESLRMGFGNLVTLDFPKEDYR
Chain of Beta-adrenergic receptor kinase 1 (Homo sapiens) (P25098 whole entry): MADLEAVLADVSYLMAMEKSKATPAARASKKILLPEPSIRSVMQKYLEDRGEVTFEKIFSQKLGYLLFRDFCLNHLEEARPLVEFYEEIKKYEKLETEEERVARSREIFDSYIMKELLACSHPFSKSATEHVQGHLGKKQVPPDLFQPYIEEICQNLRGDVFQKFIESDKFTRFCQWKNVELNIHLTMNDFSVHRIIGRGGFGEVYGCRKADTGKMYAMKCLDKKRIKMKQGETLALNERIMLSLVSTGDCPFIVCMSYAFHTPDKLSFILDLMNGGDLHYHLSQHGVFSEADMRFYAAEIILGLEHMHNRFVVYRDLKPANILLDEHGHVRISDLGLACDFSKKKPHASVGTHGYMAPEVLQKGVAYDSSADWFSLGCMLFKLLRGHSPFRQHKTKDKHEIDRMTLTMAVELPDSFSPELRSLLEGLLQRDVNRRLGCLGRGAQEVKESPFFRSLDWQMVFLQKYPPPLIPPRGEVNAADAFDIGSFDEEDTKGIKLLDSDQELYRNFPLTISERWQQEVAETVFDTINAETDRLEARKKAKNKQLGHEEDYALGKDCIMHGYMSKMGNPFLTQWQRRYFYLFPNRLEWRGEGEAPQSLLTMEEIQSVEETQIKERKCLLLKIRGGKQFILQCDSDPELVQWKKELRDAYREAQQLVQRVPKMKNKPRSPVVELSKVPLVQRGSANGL
Chain of Aurora kinase C (Homo sapiens) (Q9UQB9 whole entry): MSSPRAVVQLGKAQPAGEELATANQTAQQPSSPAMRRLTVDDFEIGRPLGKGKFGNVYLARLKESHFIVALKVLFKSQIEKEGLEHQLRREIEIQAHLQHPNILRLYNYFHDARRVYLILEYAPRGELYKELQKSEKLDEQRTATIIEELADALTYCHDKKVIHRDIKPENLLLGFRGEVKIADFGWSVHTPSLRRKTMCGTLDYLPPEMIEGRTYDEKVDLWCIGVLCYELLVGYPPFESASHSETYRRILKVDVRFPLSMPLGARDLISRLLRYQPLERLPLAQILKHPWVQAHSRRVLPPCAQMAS

Cn1cc(Cl)c2c(Oc3c(F)cc(Nc4cc(Cl)nc(N)n4)cc3F)ccnc21 [BAY-4900]
inactive: [1] 100% | [2] 91% | [3] 93% | [4] 100% | [5] 83% | [6] 93% | [7] 99% | [8] 75% | [9] 96% | [10] 81% | [11] 97% | [12] 100% | [13] 100% | [14] 100% | [15] 97% | [16] 80% | [17] 100% | [18] 100% | [19] 82% | [20] 93% | [21] 97% | [22] 97% | [23] 100% | [24] 95% | [25] 100% | [26] 79% | [27] 78% | [28] 79% | [29] 81% | [30] 100% | [31] 75% | [32] 100% | [33] 99% | [34] 77% | [35] 83% | [36] 76%

Cc1c[nH]c2nccc(Oc3c(F)cc(Nc4cc(Cl)nc(N)n4)cc3F)c12 [BAY-549]
inactive: [1] 72% | [2] 75% | [3] 93% | [4] 81% | [5] 84% | [6] 81% | [7] 95% | [8] 100% | [9] 90% | [10] 76% | [11] 100% | [12] 100% | [13] 100% | [14] 93% | [15] 72% | [16] 99% | [17] 100% | [18] 100% | [19] 90% | [20] 75% | [21] 86% | [22] 98% | [23] 78% | [24] 90% | [25] 100% | [26] 95% | [27] 85% | [28] 100% | [29] 98% | [30] 100% | [31] 67% | [32] 100% | [33] 66% | [34] 73% | [35] 59% | [36] 80%

From ChEMBL document CHEMBL4507274 (2021)
